The record followed here is ChEMBL document CHEMBL1123590, “Dopamine agonists related to 3-allyl-6-chloro-2,3,4,5-tetrahydro-1-(4-hydroxyphenyl)-1H-3-benzaz epi ne-7, 8-diol. 6-Position modifications” (J Med Chem, 1987).

For assay [1], the target named is T1, D(2) dopamine receptor (Homo sapiens, UniProt P14416). Put plainly: Dopamine receptor D2 agonist activity was determined for inhibition of the constrictor response to electrical stimulation in an isolated perfused rabbit ear artery preparation. In kind it is functional, Oryctolagus cuniculus. The settings on record: target entry is the homologue from another species.
T1 sequence (P14416 whole entry, the tested form may be a part): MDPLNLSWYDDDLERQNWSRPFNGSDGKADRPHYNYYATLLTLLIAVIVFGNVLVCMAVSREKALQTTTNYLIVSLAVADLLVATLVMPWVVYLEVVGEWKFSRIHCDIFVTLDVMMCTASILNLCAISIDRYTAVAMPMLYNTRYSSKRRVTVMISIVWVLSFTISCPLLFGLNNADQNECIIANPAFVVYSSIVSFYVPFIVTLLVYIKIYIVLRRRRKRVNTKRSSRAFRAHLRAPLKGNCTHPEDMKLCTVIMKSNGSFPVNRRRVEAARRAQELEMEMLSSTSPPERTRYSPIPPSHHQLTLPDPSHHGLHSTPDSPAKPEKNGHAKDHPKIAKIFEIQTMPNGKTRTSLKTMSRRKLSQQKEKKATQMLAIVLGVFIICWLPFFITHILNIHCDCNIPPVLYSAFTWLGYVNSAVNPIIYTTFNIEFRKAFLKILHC

The species named for the next assay is Rattus norvegicus. Kind of assay: Maximum response of adenylate cyclase to that of maximum response caused by dopamine was measured. In kind it is functional. Also noted: unit not given here.
A further assay has as its target D(1A) dopamine receptor (Rattus norvegicus, UniProt P18901). Put plainly: Dopamine agonist (Dopamine receptor D1) activity was measured as increase in cAMP formation relative to maximum increase in dopamine-sensitive adenylate cyclase. Type of assay: functional.
Assay [2] deals with T1, D(2) dopamine receptor. Put plainly: Dopamine receptor D2 agonist activity was determined for inhibition of release of NE in an isolated perfused rabbit ear artery preparation.

Sequence of D(1A) dopamine receptor (P18901 whole entry, the tested form may be a part): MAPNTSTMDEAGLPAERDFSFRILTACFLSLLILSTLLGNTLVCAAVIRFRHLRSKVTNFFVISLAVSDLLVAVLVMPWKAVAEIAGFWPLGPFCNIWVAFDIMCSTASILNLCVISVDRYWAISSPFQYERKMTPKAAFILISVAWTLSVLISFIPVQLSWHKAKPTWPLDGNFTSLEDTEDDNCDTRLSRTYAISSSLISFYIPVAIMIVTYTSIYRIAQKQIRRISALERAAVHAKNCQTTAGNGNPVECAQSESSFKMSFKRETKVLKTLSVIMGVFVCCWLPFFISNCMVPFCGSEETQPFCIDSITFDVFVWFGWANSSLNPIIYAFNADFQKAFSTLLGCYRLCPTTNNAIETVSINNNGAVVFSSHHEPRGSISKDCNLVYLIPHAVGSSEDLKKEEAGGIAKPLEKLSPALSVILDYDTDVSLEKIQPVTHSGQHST

Consider `C=CCN1CCc2c(cc(O)c(O)c2F)C(c2ccc(O)cc2)C1.CS(=O)(=O)O` (stereo unspecified), for which the EC50 at D(2) dopamine receptor [1] amounted to 137 nM; at D(1A) dopamine receptor, 100 nM. In the assay listed under Rattus norvegicus, this compound came in with a Max response of 89.

For `C=CCN1CCc2c(cc(O)c(O)c2Cl)C(c2ccc(O)cc2)C1.CS(=O)(=O)O` (stereo unspecified), the Max response in the assay filed under Rattus norvegicus worked out at 80. The EC50 at D(1A) dopamine receptor is 15 nM; at D(2) dopamine receptor [2], 122 nM.

For the compound `C=CCN1CCc2c(cc(O)c(O)c2Br)C(c2ccc(O)cc2)C1.CS(=O)(=O)O` (stereo unspecified), the values for the EC50 on D(2) dopamine receptor [1] and at D(1A) dopamine receptor were 174 nM and 50 nM, respectively. Further, the Max response in the assay filed under Rattus norvegicus stood at 78.

Turning to `C=CCN1CCc2c(cc(O)c(O)c2C)C(c2ccc(O)cc2)C1.Cl` (stereo unspecified), the EC50 on D(2) dopamine receptor [1] is above 10000 nM; on D(1A) dopamine receptor, 400 nM. The same compound gave a Max response in the assay listed under Rattus norvegicus of 69.

On to `Br.C=CCN1CCc2cc(O)c(O)cc2C(c2ccc(O)cc2)C1` (stereo unspecified), for which the EC50 at D(2) dopamine receptor [1] was found to be 253 nM; at D(1A) dopamine receptor it was 400 nM. In the assay listed under Rattus norvegicus, the Max response amounted to 35.

For `C=CCN1CCc2cc(O)c(O)cc2C(c2ccccc2)C1.Cl` (stereo unspecified), the Max response in the assay listed under Rattus norvegicus was 45.
